What was measured:
H3K27me3 [1] = experiment: Pharmacodynamic activity: change in H3K27me3 in peripheral blood monocytes by flow cytometry; format: in vivo, human
Description: (§1) MAK683 was administered fasted once (QD) or twice daily (BID) on a continuous schedule in 28-day treatment cycles. The pharmacokinetic (PK) profile of MAK683 was assessed in sequential blood samples on Days 1, 8 and/or 15 of Cycles 1-6. MAK683 pharmacodynamic activity in Cycle 1, measured by change in H3K27me3, was evaluated in peripheral blood monocytes on Days 1, 8, and 15 by flow cytometry and in tumor biopsies at baseline and Day 15 by H-score.

H3K27me3 [2] = experiment: Pharmacodynamic activity: H3K27me3 in tumor biopsies by H-score; format: in vivo, human; details: paired baseline-Day 15 tumor biopsies; diffuse large B-cell lymphoma (n=4) or sarcoma (n=6)
Description: as §1

[3] = system: advanced malignancies (DLBCL, nasopharyngeal carcinoma, other advanced solid tumors); experiment: Antitumor activity, overall response rate (ORR) in subjects with advanced malignancies; format: in vivo, human; details: local assessment per Cheson 2014, RECIST v1.1 and PCWG2
From the text: (§2) This study is a multicenter, open label, study to establish the maximum tolerated dose (MTD) and/or recommended phase 2 dose (RP2D) and to evaluate the safety, antitumor activity and pharmacokinetic (PK) profile of MAK683 (Compound (1) of MAK683 (Compound (1) in subjects with advanced malignancies such as Diffuse Large B cell Lymphoma (DLBCL), nasopharyngeal carcinoma (NPC) or other advanced solid tumors for whom no further effective standard treatment is available. The patients will be administered MAK683 single agent orally until they experience unacceptable toxicity, progressive disease and/or treatment discontinuation at the discretion of the investigator or patient or withdrawal of consent. The phase I part plans to enroll patients with relapsed/refractory DLBCL, advanced/ metastatic nasopharyngeal carcinoma with presence of p16/CDKN2A gene and other solid tumors including castration-resistant prostate cancer, gastric cancer, OCCC, sarcoma. All patients enrolled in this part of the study will receive escalating oral doses of MAK683 in fasted condition, unless significant GI toxicity is observed, in which case dosing with moderate-fat meals may be assessed. The starting dose and regimen for the MAK683 first-in-man clinical study is about 10 mg QD. […]

[4] = Safety, adverse events in Phase I/II study; format: in vivo; details: patients with advanced malignancies, oral MAK683
From the text: as §2

[5] = Pharmacokinetic profile of MAK683 in sequential blood samples, Phase I/II study; format: in vivo, human
From the text: This study is a multicenter, open label, study to establish the maximum tolerated dose (MTD) and/or recommended phase 2 dose (RP2D) and to evaluate the safety, antitumor activity and pharmacokinetic (PK) profile of MAK683 (Compound (1) of MAK683 (Compound (1) in subjects with advanced malignancies such as Diffuse Large B cell Lymphoma (DLBCL), nasopharyngeal carcinoma (NPC) or other advanced solid tumors for whom no further effective standard treatment is available. The patients will be administered MAK683 single agent orally until they experience unacceptable toxicity, progressive disease and/or treatment discontinuation at the discretion of the investigator or patient or withdrawal of consent. The phase I part plans to enroll patients with relapsed/refractory DLBCL, advanced/ metastatic nasopharyngeal carcinoma with presence of p16/CDKN2A gene and other solid tumors including castration-resistant prostate cancer, gastric cancer, OCCC, sarcoma. All patients enrolled in this part of the study will receive escalating oral doses of MAK683 in fasted condition, unless significant GI toxicity is observed, in which case dosing with moderate-fat meals may be assessed. The starting dose and regimen for the MAK683 first-in-man clinical study is about 10 mg QD. Escalation will continue to about 20 mg, about 40 mg, about 80 mg, about 120 mg, about […], about […], about 240 mg, about 300 mg, about 500 mg or about 800 mg or until the MTD is reached or a RP2D is established based on emerging data.
as §1

Cc1ncccc1-c1cnc(NCc2c(F)ccc3c2CCO3)n2cnnc12 [MAK683, N-((5-fluoro-2,3-dihydrobenzofuran-4-yl)methyl)-8-(2-methylpyridin-3-yl)-[1,2,4]triazolo[4,3-c]pyrimidin-5-amine]
H3K27me3/H3 ratio change from baseline in peripheral monocytes (H3K27me3 [1]; Cycle 1, Days 1, 8, 15, across doses): substantial on-treatment reductions from baseline
Maximum percentage reduction of H3K27me3/H3 ratio, relation to exposure (H3K27me3 [1]; peripheral monocytes): proportional to cumulative MAK683 AUC
patients with H3K27me3 H-score reductions from baseline >40 (H3K27me3 [2]): 7/10
positive endpoint: improved overall response rate (ORR) [3]: met at least one of the above endpoints
adverse events [4]: mild to moderate and did not lead to discontinuation
PK exposure (Cmax and AUC) dose proportionality ([5]; 800 mg QD): over-proportional
PK exposure (Cmax and AUC) dose proportionality ([5]; 10-500 mg QD and 60-450 mg BID): variable and broadly dose-proportional
accumulation after multiple doses (Racc) ([5]; after multiple doses): 0.8-2.3
half-life ([5]; human, blood, oral, across cohorts, unchanged after multiple doses, read-out: Apparent terminal half-life (geometric mean)): 2.5 to 5.2 h
Tmax ([5]; human, blood, patients, oral, fasted, 10-800 mg QD or 60-450 mg BID, read-out: median Tmax): ~1 h
Time to steady-state ([5]; patients, QD or BID continuous dosing): ~3 days

Reference: US20230293529A1, “DOSING REGIMENS FOR N-((5-FLUORO-2,3-DIHYDROBENZOFURAN-4-YL)METHYL)-8-(2-METHYLPYRIDIN-3-YL)-[1,2,4]TRIAZOLO[4,3-C]PYRIMIDIN-5-AMINE, OR A PHARMACEUTICALLY ACCEPTABLE SALT THEREOF, FOR USE IN TREATING PRC2-MEDIATED DISEASES OR DISORDERS” (Novartis AG, priority 2020, published 2023)
